This is an account of results in US6156744A, “DT-diaphorase directed anti-tumor agents” (Cancer Research Campaign Tech (London), priority 1999, dated 2000).

One data set deals with DTD. Conditions: cited from earlier work; for Substrate quality for DTD / pH dependence of metabolism by DTD: literature.
Data set [1] relates to DNA. Particulars: literature; cited from earlier work.
A further data set has as its system DTD-rich cell lines. Conditions: literature; cited from earlier work.
The next data set concerns H596 and H460 cells. Briefly: MTT continuous challenge cytotoxicity, ratio H596/H460. Particulars: ratio of cytotoxicities, five days, 7200 min. It counts as cell-based, human. The procedure:
(§1) The cell lines used in this work were HT29, H460, H596, BE. These were obtained from the ATCC or from the European Collection for Animal Cell Cultures, ECACC. HT29 is a human colon cancer cell line and H460 is a human large cell lung carcinoma cell line. These two cell lines were used as they express relatively high levels of DTD. […] Continuous challenge cytotoxicity studies were carried out on these cells (600 per well) in 96 well plates using the MTT method. After five days, the absorbances were read on a multiscan plate reader at 540 and 640nm. Plots were then drawn for inhibition of cell growth as a function concentration. Each compound was tested in triplicate at each concentration on at least two occasions.

A further data set relates to BE and HT-29 cells. Briefly: MTT continuous challenge cytotoxicity, ratio BE/HT-29. In kind it is cell-based, human. Particulars: ratio of cytotoxicities, five days, 7200 min. The procedure:
as §1

Another data set concerns spheroid. Particulars: literature; cited from earlier work.
For data set [2] the following is noted: Bibby et al. 1993; cited from earlier work.
For data set [3], the target named is human recombinant DT-diaphorase (Homo sapiens, UniProt P15559). Briefly: NADH removal and quinone removal by recombinant human DT-diaphorase, HPLC. In kind it is biochemical. Particulars: for NADH Removal / Quinone Removal: 0.05 mM quinone, 10-100 ng/ml rhDT-diaphorase, 0.2 mM NADH, 25 mM Tris pH 7.4, n=3. The procedure: The relative abilities of MeDZQ and RH1 to serve as substrates for human recombinant DT-diaphorase were determined. Both quinones (0.05 mM) were incubated with 10-100 ng/ml recombinant human DT-diaphorase and NADH (0.2 mM) in 25 mM Tris buffer, pH 7.4, containing 1 mM DETAPAC. NADH removal was measured by HPLC as described in Beall et al., (1995), supra.

Data set [4] relates to BE human colon carcinoma cells and H460 human non-small cell lung cancer cells. Briefly: MTT cytotoxicity, continuous four day exposure, BE versus H460 (FIG. 2). It counts as cell-based. Particulars: four days, 5760 min. The procedure: (§2) The cell line BE is a human colon carcinoma that is described in Day et al., Carcinogenesis 1 :21-32 (1980).
The cytotoxicity of RH1 and MeDZQ to BE human colon carcinoma cells and H460 human non small cell lung cancer cells was determined. BE cells are DT-diaphorase null due to a mutation in the DT-diaphorase gene, while H460 cells have elevated DT-diaphorase levels (Traver et al., (1997) supra.). Cytotoxicity was determined using the MTT assay and cells were exposed to drug continuously throughout the four day assay.

In the next data set the test system is H460 and H596 cells. Particulars: Ross et al. 1993; cited from earlier work.
For data set [5] the following is noted: cited from earlier work.
Data set [6] concerns DNA. Particulars: Lee et al. 1992; cited from earlier work.
The test system of another data set is NSCLC xenografts. Conditions: cited from earlier work.
Data set [7] has as its system 69 human tumor cell lines. Conditions: p<0.016; cited from earlier work.
Data set [8] relates to CHO cell lines stably transfected with human DTD. Conditions: Gustafson et al. 1996; cited from earlier work.
For data set [9], the system named is cells under hypoxic conditions. Conditions: hypoxic vs aerobic; cited from earlier work.
The conditions of data set [10]: Beall et al. 1994, 1995; cited from earlier work.
In data set [11] the test system is NSCLC and breast cancer cell lines. Particulars: Beall et al. 1995; cited from earlier work.
In data set [12] the test system is H460 and H596 human non-small cell lung cancer cells. Briefly: MTT cytotoxicity, 2 hour exposure, H460 versus H596 cells (FIG. 1). It counts as cell-based. The procedure: FIG. 1 compares the cytotoxicity of RH1 in human non small cell lung tumor cell lines with elevated DTD activity (H460) and those with no detectable DTD activity (H596). RH1 was 350 fold more toxic to tumor cells with elevated DTD activity than to DTD null cells.
Studies were conducted to determine the cytotoxicity of RH1 against human non small cell lung cancer cell lines. H596 cells are DT-diaphorase null due to a mutation in the DT-diaphorase gene, while H460 cells have elevated DT-diaphorase levels as described in Beall et al., (1995) supra and Traver et al., Br. J. Cancer, 75:69-75 (1997). The cell lines H460 and H596 are available from the American Tissue Type Culture Collection (ATCC), Rockville, Md. Cytotoxicity was determined after a 2 hour drug exposure in serumless medium using the MTT assay as described in detail in Beall et al., (1995), supra.

In another data set the test system is CHO812 and CHOglyA cells. Briefly: Cytotoxicity of RH1 to CHOglyA and DTD-transfected CHO812 cells (FIG. 3). In kind it is cell-based, chinese hamster. The procedure: as §2
Further studies were conducted to determine the cytotoxicity of RH1 to CHOglyA and CHO812 cells. CHOglyA cells have non detectable levels of DT-diaphorase, whereas CHO812 cells have elevated levels of DT-diaphorase as reported in Gustafson et al., (1996) supra. The original CHO cell lines were obtained from the American Type Culture Collection, Rockville, Md.

Data set [13] is described as follows: Solubility in aqueous solution. Conditions: phosphate buffered saline; 25° C. In kind it is physicochemical. The procedure: (§3) RH1 is easily synthesized with very high purity (>99%). […] The RH1 solutions are very stable with a half life of RH1 in phosphate buffer (0.1 M, pH=7) of more than 2 days at 25° C.
Data set [14] is described as follows: Stability of RH1 in phosphate buffer. It counts as physicochemical. The procedure:
as §3

The test system of data set [15] is DNA. Briefly: DNA crosslinking sequence specificity. It counts as biochemical.
Data set [16] in a line: Half-life in pharmacokinetics. Particulars: attributed to free hydroxyl group / water solubility.

Where two headings read alike, the source gives them in different places.

Chain of human recombinant DT-diaphorase (P15559 whole entry): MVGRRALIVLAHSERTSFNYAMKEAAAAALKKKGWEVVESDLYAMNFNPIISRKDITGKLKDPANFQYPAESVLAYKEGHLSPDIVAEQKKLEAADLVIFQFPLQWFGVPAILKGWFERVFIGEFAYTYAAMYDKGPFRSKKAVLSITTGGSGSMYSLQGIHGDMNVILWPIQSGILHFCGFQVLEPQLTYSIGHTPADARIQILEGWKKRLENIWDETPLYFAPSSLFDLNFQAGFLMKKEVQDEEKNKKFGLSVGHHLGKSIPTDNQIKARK

Regarding `CCOC(=O)NC1=C(N2CC2)C(=O)C(NC(=O)OCC)=C(N2CC2)C1=O` [AZQ, Diaziquone], the “Substrate quality for DTD” value in the data set on DTD is listed as “extremely poor substrate for DTD”. For the same compound, the “DNA damage after reduction (crosslinks, strand breaks)” value (from here on “DNA damage after reduction”) in the data set on DNA [1] is “does not readily form DNA crosslinks after reduction by DTD”. Besides, the “Selectivity for DTD-rich cell lines” value in the data set on DTD-rich cell lines was “failed to show any selectivity for DTD-rich cell lines”.
As for `CC(=O)OCC1=C(N2CC2)C(=O)C(C)=C(N2CC2)C1=O` [Acetyl-, 2-Acetoxymethyl-3,6-diaziridinyl-5-methyl-1,4-benzoquinone], the H596/H460 in the data set on H596 and H460 cells came out at 4.7. The BE/HT-29 in the data set on BE and HT-29 cells is on record as 5.2.
Turning to `CC1=C(N2CC2)C(=O)C(COC(=O)c2ccccc2)=C(N2CC2)C1=O` [Benzoyl, benzoyl ester of RH1], the H596/H460 in the data set with H596 and H460 cells came to 4. The BE/HT-29 in the data set on BE and HT-29 cells is reported as 0.1.
Turning to `Cn1c(/C=C/CO)c(CO)c2c1C(=O)C=C(N1CC1)C2=O` [E09], in the data set with DTD, the “Substrate quality for DTD” value is “efficiently reduced by DTD”. For the same compound, in the data set with spheroid, the “Activity / cytotoxicity in spheroid studies” value is recorded as “not active”. Besides, the “DNA damage after reduction” value with DNA [1] is listed as “exclusively form DNA strand breaks”. The “Ability to penetrate cells and cross cellular membranes” value in data set [2] is “poor ability”.
Regarding `CC1=C(N2CC2)C(=O)C(C)=C(N2CC2)C1=O` [MeDZQ, 2,5-diaziridinyl-3,6-dimethyl-1,4-benzoquinone], in data set [3], the “NADH Removal” value stood at 21.6 ± 4.0 and the “Quinone Removal” value is listed as 9.7 ± 2.2. Moreover, the “Ratio of cytotoxicities of IC50, BE (no DTD activity) to H460 (elevated DTD activity)” value in data set [4] was determined as 33. Also, in the data set on H460 and H596 cells, the “Cytotoxicity to H596 and H460 cells in comparison to RH1” value was “less cytotoxic to both H596 and H460 cells”; the “Differential toxicity to H460 cells (versus H596)” value is recorded as 17 fold. In addition, in data set [5], the solubility (in general, how much of the substance goes into solution per volume) is recorded as “poor solubility”. In addition, the DNA crosslinking sequence entry with DNA [6] is “GNC sequences”. Moreover, the “Effectiveness as a substrate for recombinant human DTD relative to mitomycin C” value with DTD (Beall et al. 1994, Ross et al. 1994) is reported as “greater than 150 fold”. Moreover, in the data set on DTD, the “Inhibition / inactivation of DTD at higher pHs” value is “does not inactivate DTD at higher pHs” and the “pH dependence of metabolism by DTD” value is given as “pH-independent”. In the data set on spheroid, the “Activity / cytotoxicity in spheroid studies” value was “increased cytotoxicity”. Moreover, the “Relationship between levels of reducing enzymes and efficacy in NSCLC xenografts” value in the data set on NSCLC xenografts (in vivo) is “confirmed the relationship between the levels of reducing enzymes and the efficacy”. In data set [7], the “Correlation (r) between DTD activity and cytotoxicity” value is on record as 0.3033. In data set [8], the “Cytotoxicity as a result of transfecting DTD into CHO cells” value is “markedly increased”. Further, the “Increase in cytotoxicity under hypoxic relative to aerobic conditions” value in data set [9] was “very modest increase in cytotoxicity”. Further, in data set [10], the “Stability of reactive hydroquinone metabolite” value is “appreciable stability”. The “Correlation between DTD levels and cytotoxicity” value in data set [11] is “good correlation”. In addition, the “DNA damage after reduction” value in the data set on DNA [1] was “absolute requirement for reduction of the drug”.
In the case of `CC1=C(N2CC2)C(=O)C(CO)=C(N2CC2)C1=O` [RH1, 2,5-diaziridinyl-3-(hydroxymethyl)-6-methyl-1,4-benzoquinone], in [3], the “NADH Removal” value was 45.2 ± 6.3 and the “Quinone Removal” value is listed as 28.2 ± 4.2. Further, in [3] (Example 2), the “Effectiveness as a substrate for DT-diaphorase, compared with MeDZQ” value was “more effective as a substrate for DT-diaphorase than MeDZQ”. Also, in data set [12], the “Cytotoxicity to tumor cell lines with elevated DTD activity, compared with MeDZQ” value was “more cytotoxic to tumor cell lines with elevated DTD activity” and the “Selective killing of DTD-rich cells” value is given as “selectively kills cells rich in DTD”. Further, the “Fold toxicity to tumor cells with elevated DTD activity (H460) relative to DTD null cells (H596)” value in [12] (2 hour exposure, MTT, FIG. 1) came to 350 fold. Moreover, the “Ratio of cytotoxicities of IC50, BE (no DTD activity) to H460 (elevated DTD activity)” value in [4] is 51. Moreover, the “Susceptibility of CHO-812 (DTD overexpressing) to cell killing relative to parent CHO-glyA” value in the data set on CHO812 and CHOglyA cells is recorded as “more susceptible”. The H596/H460 with H596 and H460 cells is 41. Also, in the data set with BE and HT-29 cells, the BE/HT-29 came to 17.5. The compound also came in with a solubility in data set [13] of over 500 µg/mL. In data set [14], the “Stability of solutions” value is recorded as “very stable”. For the same compound, the half-life (commonly how long it takes for the measured level to halve) in data set [14] (0.1 m phosphate buffer, 0.1 M, pH=7, 25° C.) is over 48 h. Further, the DNA crosslinking sequence result in the data set with DNA [15] was “GCC sequences”. For the same compound, in data set [16], the Half-life in pharmacokinetics result was “shorter half-life in pharmacokinetics”.
Turning to `CO[C@@]12[C@H](COC(N)=O)C3=C(C(=O)C(C)=C(N)C3=O)N1C[C@@H]1N[C@@H]12` [mitomycin C], in the data set on DTD, the “Inhibition / inactivation of DTD at higher pHs” value is reported as “pH-dependent inhibition of DTD at higher pHs”, the “Substrate quality for DTD” value is “very poor substrate for DTD” and the “pH dependence of metabolism by DTD” value was “pH-dependent”. Also, the “Susceptibility of NSCLC xenografts with high DTD activity versus SCLC xenografts with low DTD activity” value with NSCLC xenografts (literature) is on record as “more susceptible”.
